{"source": "paper PMC11434613", "about": "“The Remarkable and Selective In Vitro Cytotoxicity of Synthesized Bola-Amphiphilic Nanovesicles on Etoposide-Sensitive and -Resistant Neuroblastoma Cells” (Nanomaterials, 2024)", "key": {"Cos-7 cells": {"tested_on": "Cos-7 cells", "assay": "MTT cytotoxicity assay on Cos-7 cells", "type": "cell-based, African green monkey", "conditions": "for IC50: MTT, concentration range 0.4–85.3 µM", "method": "(§1) To assess the cytotoxicity properties of BPPB, the MTT (3-(4,5-dimethylthiazol-2-yl)-2,5-diphenyltetrazolium bromide) cell proliferation assay (Abcam, Prodotti Gianni s.r.l., Milano, Italy, Cat#ab2011091) was performed, following the manufacturer’s protocol, as previously reported. This time, the increasing concentrations of BPPB were in the range of 0.4–85.3 µM. The cell survival rate, expressed as cell viability percentage (%), was evaluated based on the experimental outputs of treated groups vs. the untreated groups (CTR) and was calculated as follows: cell viability (%) = (OD treated cells − OD blank)/(OD untreated cells − OD blank) × 100%.\n(§2) In this study, the cytotoxicity profile of BPPB was assessed in both immortalized human liver cells (HepG2) cells, as in our previous works, and in transformed African green monkey kidney fibroblast cells (Cos-7), as reported in a recent paper. Specifically, we evaluated the cytotoxicity of BPPB by carrying out both the MTT proliferation assay and the lactate dehydrogenase (LHD) cytotoxicity assay, which measures the LDH activity as an indicator of cell death. Both cell lines were exposed for 24 h to increasing concentrations of BPPB (0.4–85.3 µM). Growth inhibition/death were determined by the MTT test, while cell cytotoxicity was determined by LDH assay, with respect to untreated control cells. Results are reported as bar graphs in Figure 8 and as dispersion graphs in Figures S13 and S14 in Supplementary Materials (Section S2)."}, "[1]": {"assay": "MTT cytotoxicity assay on Cos-7 cells", "type": "cell-based, African green monkey", "conditions": "African green monkey", "method": "as §1, §2"}, "[2]": {"tested_on": "Human MRC-5 lung fibroblast cells", "assay": "Presto Blue viability test on MRC-5 lung fibroblasts", "type": "cell-based", "conditions": "for IC50: concentration range 0.5–5 µM", "method": "(§3) Human MRC-5 lung fibroblast cells were used (ICLC-IRCCS San Martino, Genoa, Italy); cells were expanded in DMEM/F12 50%/50% (Dulbecco’s Modified Eagle Medium/Ham’s F12 50/50 Mix; Corning, Pisa, Italy; cat. n. 10-090-CV; ThermoFisher Scientific, Segrate (MI), Italy, supplemented with 10% fetal bovine serum (GIBCO-Invitrogen, GIBCO-ThermoFisher Life Science, Segrate, Italy, catalog number (cat. n.) 10270-098) and 2 mM glutamine (Euro-Clone; Pero, MI, Italy; cat. n. EC B3000D) at 37 °C under 5% CO2 aeration. After expansion, cells were washed three times with sterile phosphate buffered solution (PBS; VWR, Milano, Italy, cat. n. 392-0442), detached with 0.25% Trypsin solution (Corning; cat-25-050-CI), collected in complete medium, and centrifuged at 400× g for 12 min. The supernatant was discarded, and cells were suspended in PBS, counted, and centrifuged again as mentioned above. Cells were then resuspended in complete medium, seeded into 24-well plates (20,000 cells/well) and allowed to adhere to the plate for the next 24 h. Subsequently, non-adherent cells and the plating medium were discarded, and fresh standard medium or treatment medium were added. Treatment media contained BPPB at different concentrations (0.5, 1.0, 5.0, 25.0, 50.0, 75.0 and 100.0 μM); triplicate wells for each concentration were tested simultaneously, as well as controls. The medium was changed every day. Cells were photographed and assayed for viability prior to treatment (time 0; T0) and after 24, 48, and 72 h subsequently (T24, T48 and T72). Bright field images of each well/treatment were acquired using a Nikon Digital Sigh DS-5Mc camera (Nikon Europe B.V., Amstelveen, The Netherlands) mounted on an inverted Olympus CKX-41 microscope (Evident Europe GmbH, Segrate (Milan), Italy) (4×, 10× and 20× enlargements).\n(§4) Briefly, at the indicated time points, cells were washed twice with PBS and incubated in the dark a 37 °C for 4 h with fresh complete medium supplemented with 10% Presto Blue ^TM. Aliquots of the Presto Blue ^TM-containing medium were incubated in the same conditions, to be used as reaction blanks. Supernatants and blanks were then collected and analyzed using a Spectra MR multi-plate reader spectrophotometer (Dynex Technologies; Chantilly, VA, USA) at 570 and 600 nm. The results were calculated as the average of treatment replicas (triplicates) ± S.D., normalizing each 570 nm reading to its corresponding value at 600 nm, subtracting the average blank value, and normalizing the results at each time point to the initial reading at T0."}, "[3]": {"assay": "Presto Blue viability test on MRC-5 lung fibroblasts", "type": "cell-based, human", "conditions": "human", "method": "as §3, §4"}}, "note": "“And” between values parts separate entries of the source, which are not always exact repeats. Equal entries are not always repeated."}
{"smiles": "c1ccc([P+](CCCCCCCCCCCC[P+](c2ccccc2)(c2ccccc2)c2ccccc2)(c2ccccc2)c2ccccc2)cc1", "note": "[BPPB, 1,1-(1,12-dodecanediyl)bis [1,1, 1]-triphenylphosphonium di-bromide]", "values": [{"measurement": "Selectivity index (SI) = IC50 Cos-7 / IC50 HTLA-230", "setting": "Cos-7 cells; 24 h", "value": 20.72}, {"measurement": "IC50", "setting": "Cos-7 cells; 24 h", "value": "4910 ± 810", "unit": "nM"}, {"measurement": "IC50", "setting": "Cos-7 cells; Chlorocebus sabaeus, COS-7, 24 h", "value": 4900, "unit": "nM"}, {"measurement": "Concentrations with a safety profile toward Cos-7", "setting": "Cos-7 cells; MTT test, 24 h", "value": "≤ 4.3", "unit": "µM"}, {"measurement": "viability at 24 h, 4.3 µM", "setting": "[1]; Cos-7 cells, 4.3 µM, read-out: Cell viability Cos-7 (MTT)", "value": 64.2, "unit": "%"}, {"measurement": "viability at 24 h, 8.5 µM", "setting": "[1]; Cos-7 cells, 8.5 µM, read-out: Cell viability Cos-7 (MTT)", "value": 27.4, "unit": "%"}, {"measurement": "selectivity ratio at 24 h", "setting": "[1]; read-out: Selectivity index (SI) = IC50 Cos-7 / IC50 HTLA-ER", "value": 4.42}, {"measurement": "Selectivity index (SI) = IC50 MRC-5 / IC50 HTLA-230", "setting": "[2]; 24 h", "value": 11.68}, {"measurement": "Selectivity index (SI) = IC50 MRC-5 / IC50 HTLA-ER", "setting": "[2]; 24 h", "value": 2.49}, {"measurement": "IC50", "setting": "[2]; 24 h exposure", "value": 2770, "unit": "nM"}, {"measurement": "Selectivity index (SI) = IC50 MRC-5 / IC50 HTLA-230", "setting": "[2]; 48 h", "value": 3.77}, {"measurement": "Selectivity index (SI) = IC50 MRC-5 / IC50 HTLA-ER", "setting": "[2]; 48 h", "value": 0.80}, {"measurement": "Selectivity index (SI) = IC50 MRC-5 / IC50 HTLA-230", "setting": "[2]; 72 h", "value": "4.01 and 4.07"}, {"measurement": "Selectivity index (SI) = IC50 MRC-5 / IC50 HTLA-ER", "setting": "[2]; 72 h", "value": 1.11}, {"measurement": "Fold higher SI for HTLA-ER than that of ETO", "setting": "[2]; BPPB SI vs MRC-5, 24 h (2.49) against ETO SI (0.32)", "value": 7.8, "unit": "fold"}, {"measurement": "IC50", "setting": "[2]; Homo sapiens, MRC5, 24 h, 24 h exposure", "value": 2800, "unit": "nM"}, {"measurement": "IC50", "setting": "[2]; Homo sapiens, MRC5, 48 h, 48 h exposure", "value": "740 ± 572", "unit": "nM"}, {"measurement": "IC50", "setting": "[2]; Homo sapiens, MRC5, 72 h, 72 h exposure", "value": "928 ± 896", "unit": "nM"}, {"measurement": "Effect on plated MRC-5 cells", "setting": "[2]; any concentration equal to or higher than 25 µM, within 24 h", "value": "detachment and death of all plated cells"}, {"measurement": "selectivity ratio at 24 h", "setting": "[3]; 24 h, read-out: Selectivity index (SI) = IC50 MRC-5 / IC50 HTLA-ER", "value": 2.5}, {"measurement": "selectivity ratio at 48 h", "setting": "[3]; 48 h, read-out: Selectivity index (SI) = IC50 MRC-5 / IC50 HTLA-ER", "value": "~1"}, {"measurement": "selectivity ratio at 72 h", "setting": "[3]; 72 h, read-out: Selectivity index (SI) = IC50 MRC-5 / IC50 HTLA-ER", "value": "~1"}, {"measurement": "viability at 48 h, 1 µM", "setting": "[3]; MRC-5 lung fibroblast cells, 1.0 µM, 48 h, read-out: Percentage of viable MRC-5 cells with respect to seeded cells at T0", "value": 26.8, "unit": "%"}, {"measurement": "viability at 72 h, 1 µM", "setting": "[3]; MRC-5 lung fibroblast cells, 1.0 µM, 72 h, read-out: Percentage of viable MRC-5 cells with respect to seeded cells at T0", "value": 30.6, "unit": "%"}, {"measurement": "viability at 5 µM", "setting": "[3]; MRC-5 lung fibroblast cells, 5 µM, 48–72 h, read-out: Cell viability MRC-5", "value": 3, "unit": "%"}, {"measurement": "viability at 24 h, 5 µM", "setting": "[3]; MRC-5 lung fibroblast cells, 5 µM, 24 h, read-out: Cell viability MRC-5", "value": 38, "unit": "%"}, {"measurement": "viability at 48 h, 5 µM", "setting": "[3]; MRC-5 lung fibroblast cells, 5.0 µM, 48 h, read-out: Percentage of viable MRC-5 cells with respect to seeded cells at T0", "value": 2.78, "unit": "%"}, {"measurement": "viability at 72 h, 5 µM", "setting": "[3]; MRC-5 lung fibroblast cells, 5.0 µM, 72 h, read-out: Percentage of viable MRC-5 cells with respect to seeded cells at T0", "value": 3.04, "unit": "%"}]}
